Assay results as given in patent US20250049033A1, “PESTICIDALLY ACTIVE PYRIDAZINONE COMPOUNDS” (SYNGENTA CROP PROTECTION AG, priority 2021, published 2025).

What was measured:
Type in all cases: in vivo
[1] = system: Chilo suppressalis; assay: Activity against Chilo suppressalis (striped rice stemborer), artificial diet, L2 larvae; details: 144 h, application rate 200 ppm, 6 days after infestation, vs untreated, read-out: control in at least one of the three categories (mortality, anti-feedant effect, or growth inhibition)
Method: Example B1: Activity Against Chilo suppressalis (Striped Rice Stemborer)
24-well microtiter plates with artificial diet were treated with aqueous test solutions prepared from 10′000 ppm DMSO stock solutions by pipetting. After drying, the plates were infested with L2 larvae (6-8 per well). The samples were assessed for mortality, anti-feeding effect, and growth inhibition in comparison to untreated samples 6 days after infestation. Control of Chilo suppressalis by a test sample is given when at least one of the categories mortality, anti-feedant effect, and growth inhibition is higher than the untreated sample.

[2] = system: Plutella xylostella; assay: Activity against Plutella xylostella (diamond back moth), artificial diet, eggs; details: 192 h, application rate 200 ppm, 8 days after infestation, vs untreated, read-out: control in at least one of the two categories (mortality or growth inhibition)
Method: Example B7: Activity Against Plutella xylostella (Diamond Back Moth)
24-well microtiter plates with artificial diet were treated with aqueous test solutions prepared from 10′000 ppm DMSO stock solutions by pipetting. After drying, Plutella eggs were pipetted through a plastic stencil onto a gel blotting paper and the plate was closed with it. The samples were assessed for mortality and growth inhibition in comparison to untreated samples 8 days after infestation. The following compounds gave an effect of at least 80% control in at least one of the two categories (mortality or growth inhibition) at an application rate of 200 ppm: P1, P2, P3, P4, P6, P7, P8, P9, P10, P11, P12, P13, P14, P15, P16, P17, P18, P19, P20, P21, P22, P23, P24, P25, P26, P27.

[3] = system: Myzus persicae; assay: Activity against Myzus persicae (green peach aphid), intrinsic activity; details: 120 h, test rate 12 ppm, 5 days after infestation, sucrose solution through Parafilm
Description: Example B6: Activity Against Myzus persicae (Green Peach Aphid). Intrinsic Activity
Test compounds prepared from 10′000 ppm DMSO stock solutions were applied by pipette into 24-well microtiter plates and mixed with sucrose solution. The plates were closed with a stretched Parafilm. A plastic stencil with 24 holes was placed onto the plate and infested pea seedlings were placed directly on the Parafilm. The infested plate was closed with a gel blotting paper and another plastic stencil and then turned upside down. The samples were assessed for mortality 5 days after infestation.

[4] = system: Tetranychus urticae; assay: Activity against Tetranychus urticae (two-spotted spider mite), feeding/contact activity; details: foliar, 192 h
Method: Example B9: Activity Against Tetranychus urticae (Two-Spotted Spider Mite). Feeding/Contact Activity
Bean leaf discs on agar in 24-well microtiter plates were sprayed with aqueous test solutions prepared from 10′000 ppm DMSO stock solutions. After drying the leaf discs were infested with a mite population of mixed ages. The samples were assessed for mortality on mixed population (mobile stages) 8 days after infestation.

[5] = system: Euschistus heros; assay: Activity against Euschistus heros (neotropical brown stink bug), soybean leaves, N2 nymphs; details: 120 h, application rate 200 ppm, 5 days after infestation, vs untreated, read-out: effect in at least one of the two categories (mortality or growth inhibition)
Method: Example B3: Activity Against Euschistus heros (Neotropical Brown Stink Bug)
Soybean leaves on agar in 24-well microtiter plates were sprayed with aqueous test solutions prepared from 10′000 ppm DMSO stock solutions. After drying the leaves were infested with N2 nymphs. The samples were assessed for mortality and growth inhibition in comparison to untreated samples 5 days after infestation.

[6] = system: Spodoptera littoralis; assay: Activity against Spodoptera littoralis (Egyptian cotton leaf worm), cotton leaf discs, L1 larvae; details: foliar, 72 h, application rate 200 ppm, 3 days after infestation, vs untreated, read-out: control in at least one of the three categories (mortality, anti-feedant effect, or growth inhibition)
Method: Example B8: Activity Against Spodoptera littoralis (Egyptian Cotton Leaf Worm)
Cotton leaf discs were placed onto agar in 24-well microtiter plates and sprayed with aqueous test solutions prepared from 10′000 ppm DMSO stock solutions. After drying the leaf discs were infested with five L1 larvae. The samples were assessed for mortality, anti-feeding effect, and growth inhibition in comparison to untreated samples 3 days after infestation. Control of Spodoptera littoralis by a test sample is given when at least one of the categories mortality, anti-feedant effect, and growth inhibition is higher than the untreated sample.

[7] = system: Diabrotica balteata; assay: Activity against Diabrotica balteata (corn root worm), maize sprouts, L2 larvae; details: 96 h, application rate 200 ppm, 4 days after infestation, vs untreated, read-out: control in at least one of the two categories (mortality or growth inhibition)
Method: Example B2: Activity Against Diabrotica balteata (Corn Root Worm)
Maize sprouts placed onto an agar layer in 24-well microtiter plates were treated with aqueous test solutions prepared from 10′000 ppm DMSO stock solutions by spraying. After drying, the plates were infested with L2 larvae (6 to 10 per well). The samples were assessed for mortality and growth inhibition in comparison to untreated samples 4 days after infestation.

[8] = system: Myzus persicae; assay: Activity against Myzus persicae (green peach aphid), feeding/contact activity; details: foliar, 144 h, application rate 200 ppm, 6 days after infestation, sunflower leaf discs, mixed ages
Method: Example B5: Activity Against Myzus persicae (Green Peach Aphid). Feeding/Contact Activity
Sunflower leaf discs were placed onto agar in a 24-well microtiter plate and sprayed with aqueous test solutions prepared from 10′000 ppm DMSO stock solutions. After drying, the leaf discs were infested with an aphid population of mixed ages. The samples were assessed for mortality 6 days after infestation.

C[C@@H](c1nccnc1-c1ccc(=O)n(C)n1)N(C)c1ncnc2c(C(F)(F)F)cc(Cl)cc12 (single isomer, unassigned) [P27]
≥ 80%: percent control (mortality, anti-feedant effect or growth inhibition) at 200 ppm [1] | percent control (mortality or growth inhibition) at 200 ppm [2] | mortality at 12 ppm [3] | mortality at 200 ppm [4] | percent effect (mortality or growth inhibition) at 200 ppm [5] | percent control (mortality, anti-feedant effect or growth inhibition) at 200 ppm [6] | percent control (mortality or growth inhibition) at 200 ppm [7] | mortality at 200 ppm [8]

C[C@H](Nc1ncnc2c(C(F)(F)F)cc(C(F)(F)F)cc12)c1ncnn1C1=NN(C)C(=O)CC1 [P7, 6-[5-[(1S)-1-[[6,8-bis(trifluoromethyl)quinazolin-4-yl]amino]ethyl]-1,2,4-triazol-1-yl]-2-methyl-4,5-dihydropyridazin-3-one]
≥ 80%: percent control (mortality, anti-feedant effect or growth inhibition) at 200 ppm [1] | percent control (mortality or growth inhibition) at 200 ppm [2] | mortality at 12 ppm [3] | percent effect (mortality or growth inhibition) at 200 ppm [5] | percent control (mortality, anti-feedant effect or growth inhibition) at 200 ppm [6] | percent control (mortality or growth inhibition) at 200 ppm [7] | mortality at 200 ppm [8]

CC(Nc1ncnc2c(C(F)(F)F)cc(C(F)(F)F)cc12)c1nccnc1-c1ccc(=O)n(C)n1 (stereo not shown) [P8, 6-[3-[1-[[6,8-bis-(trifluoromethyl)-quinazolin-4-yl]amino]ethyl]pyr-azin-2-yl]-2-meth-yl-pyridazin-3-one]
≥ 80%: percent control (mortality, anti-feedant effect or growth inhibition) at 200 ppm [1] | percent control (mortality or growth inhibition) at 200 ppm [2] | mortality at 12 ppm [3] | percent effect (mortality or growth inhibition) at 200 ppm [5] | percent control (mortality, anti-feedant effect or growth inhibition) at 200 ppm [6] | percent control (mortality or growth inhibition) at 200 ppm [7] | mortality at 200 ppm [8]

C[C@H](Nc1ncnc2c(C(F)(F)F)cc(Cl)cc12)c1ncnn1C1=NN(C)C(=O)CC1 [P9, 6-[5-[(1S)-1-[[6-chloro-8-(trifluoro-methyl)quinazolin-4-yl]amino]ethyl]-1,2,4-triazol-1-yl]-2-methyl-4,5-di-hydropyridazin-3-one]
≥ 80%: percent control (mortality, anti-feedant effect or growth inhibition) at 200 ppm [1] | percent control (mortality or growth inhibition) at 200 ppm [2] | mortality at 12 ppm [3] | percent effect (mortality or growth inhibition) at 200 ppm [5] | percent control (mortality, anti-feedant effect or growth inhibition) at 200 ppm [6] | percent control (mortality or growth inhibition) at 200 ppm [7] | mortality at 200 ppm [8]

CC(Nc1ncnc2c(C(F)(F)F)cc(Cl)cc12)c1nccnc1-c1ccc(=O)n(C)n1 (stereo not shown) [P10, 6-[3-[1-[[6-chloro-8-(trifluorometh-yl)quinazolin-4-yl]amino]ethyl]pyr-azin-2-yl]-2-methyl-pyridazin-3-one]
≥ 80%: percent control (mortality, anti-feedant effect or growth inhibition) at 200 ppm [1] | percent control (mortality or growth inhibition) at 200 ppm [2] | mortality at 12 ppm [3] | percent effect (mortality or growth inhibition) at 200 ppm [5] | percent control (mortality, anti-feedant effect or growth inhibition) at 200 ppm [6] | percent control (mortality or growth inhibition) at 200 ppm [7] | mortality at 200 ppm [8]

CC(c1nccnc1-c1ccc(=O)n(C)n1)N(C)c1ncnc2c(Cl)cc(C(F)(F)F)cc12 (stereo not shown) [P12, 6-[3-[1-[[8-chloro-6-(trifluoromethyl)quinazolin-4-yl]-methyl-amino]ethyl]pyrazin-2-yl]-2-methyl-pyridazin-3-one]
≥ 80%: percent control (mortality, anti-feedant effect or growth inhibition) at 200 ppm [1] | percent control (mortality or growth inhibition) at 200 ppm [2] | mortality at 12 ppm [3] | percent effect (mortality or growth inhibition) at 200 ppm [5] | percent control (mortality, anti-feedant effect or growth inhibition) at 200 ppm [6] | percent control (mortality or growth inhibition) at 200 ppm [7] | mortality at 200 ppm [8]

CC(Nc1ncnc2c(Cl)cc(C(F)(F)F)cc12)c1nccnc1-c1ccc(=O)n(C)n1 (stereo not shown) [P13, 6-[3-[1-[[8-chloro-6-(trifluoromethyl)quinazolin-4-yl]amino]ethyl]pyrazin-2-yl]-2-methyl-pyridazin-3-one]
≥ 80%: percent control (mortality, anti-feedant effect or growth inhibition) at 200 ppm [1] | percent control (mortality or growth inhibition) at 200 ppm [2] | mortality at 12 ppm [3] | percent effect (mortality or growth inhibition) at 200 ppm [5] | percent control (mortality, anti-feedant effect or growth inhibition) at 200 ppm [6] | percent control (mortality or growth inhibition) at 200 ppm [7] | mortality at 200 ppm [8]

CCn1nc(-n2ncnc2[C@H](C)N(C)c2ncnc3c(C(F)(F)F)cc(Cl)cc23)ccc1=O [P15, 6-[5-[(1S)-1-[[6-chloro-8-(trifluoro-methyl)quinazolin-4-yl]-methyl-amino]ethyl]-1,2,4-triazol-1-yl]-2-ethyl-pyrid-azin-3-one]
≥ 80%: percent control (mortality, anti-feedant effect or growth inhibition) at 200 ppm [1] | percent control (mortality or growth inhibition) at 200 ppm [2] | mortality at 12 ppm [3] | percent effect (mortality or growth inhibition) at 200 ppm [5] | percent control (mortality, anti-feedant effect or growth inhibition) at 200 ppm [6] | percent control (mortality or growth inhibition) at 200 ppm [7] | mortality at 200 ppm [8]

CCn1nc(-n2ncnc2[C@H](C)Nc2ncnc3c(Cl)cc(C(F)(F)F)cc23)ccc1=O [P17, 6-[5-[(1S)-1-[[8-chloro-6-(trifluoromethyl)quinazolin-4-yl]amino]ethyl]-1,2,4-triazol-1-yl]-2-ethyl-pyridazin-3-one]
≥ 80%: percent control (mortality, anti-feedant effect or growth inhibition) at 200 ppm [1] | percent control (mortality or growth inhibition) at 200 ppm [2] | mortality at 12 ppm [3] | percent effect (mortality or growth inhibition) at 200 ppm [5] | percent control (mortality, anti-feedant effect or growth inhibition) at 200 ppm [6] | percent control (mortality or growth inhibition) at 200 ppm [7] | mortality at 200 ppm [8]

CCn1nc(-n2ncnc2[C@H](C)Nc2ncnc3c(C(F)(F)F)cc(Cl)cc23)ccc1=O [P19, 6-[5-[(1S)-1-[[6-chloro-8-(trifluoro-methyl)quinazolin-4-yl]amino]ethyl]-1,2,4-triazol-1-yl]-2-ethyl-pyridazin-3-one]
≥ 80%: percent control (mortality, anti-feedant effect or growth inhibition) at 200 ppm [1] | percent control (mortality or growth inhibition) at 200 ppm [2] | mortality at 12 ppm [3] | percent effect (mortality or growth inhibition) at 200 ppm [5] | percent control (mortality, anti-feedant effect or growth inhibition) at 200 ppm [6] | percent control (mortality or growth inhibition) at 200 ppm [7] | mortality at 200 ppm [8]

CCn1nc(-n2ncnc2[C@H](C)N(C)c2ncnc3c(Cl)cc(C(F)(F)F)cc23)ccc1=O [P22, 6-[5-[(1S)-1-[[8-chloro-6-(trifluoro-methyl)quinazolin-4-yl]-methyl-amino]ethyl]-1,2,4-triazol-1-yl]-2-ethyl-pyrid-azin-3-one]
≥ 80%: percent control (mortality, anti-feedant effect or growth inhibition) at 200 ppm [1] | percent control (mortality or growth inhibition) at 200 ppm [2] | mortality at 12 ppm [3] | percent effect (mortality or growth inhibition) at 200 ppm [5] | percent control (mortality, anti-feedant effect or growth inhibition) at 200 ppm [6] | percent control (mortality or growth inhibition) at 200 ppm [7] | mortality at 200 ppm [8]

C[C@@H](c1ncnn1C1=NN(C)C(=O)CC1)N(C)c1ncnc2c(C(F)(F)F)cc(Cl)cc12 [P24]
≥ 80%: percent control (mortality, anti-feedant effect or growth inhibition) at 200 ppm [1] | percent control (mortality or growth inhibition) at 200 ppm [2] | mortality at 12 ppm [3] | percent effect (mortality or growth inhibition) at 200 ppm [5] | percent control (mortality, anti-feedant effect or growth inhibition) at 200 ppm [6] | percent control (mortality or growth inhibition) at 200 ppm [7] | mortality at 200 ppm [8]
